Source: patent publication US6489469B1, “Method for storing or transporting erythritol solution” (Nikken Chemicals Co., Ltd., priority 1999, dated 2002)

Tested on: Escherichia coli IFO 3972
Assay: Viable Count of Escherichia coli IFO 3972 in Erythritol Solution
Assay type: cell-based
Method: Erythritol solutions of respective concentrations in the range of from 30 to 60% were prepared. To these were inoculated Staphylococcus aureus IFO 13276, Bacillus subtilis IFO 3134, and Escherichia coli IFO 3972 as bacteria, Candida albicans IFO 1549 and Saccharomyces cerevisiae ATCC 9763 as yeasts, Aspergillus niger IFO 6342, Aspergillus flavus IFO 6343, and Penicillium funiculosum IFO 6345 as fungi, respectively, in a population (concentration) of 10,000 cells/mL or more. After the inoculation, the solutions were stored at 30, 37, 45, 50, or 60° C., respectively, for 56 days and the number of viable cell was determined daily. The determination of the number of viable cell was performed by a method of coating 0.1 mL of appropriately diluted sample cultivation on an agar plate and cultivating and counting the number of viable cell (the number of colony) that grew after the cultivation.

OC[C@@H](O)[C@@H](O)CO [Erythritol Solution, erythritol]
The Number of Viable Cell (30° C., 30% w/w, Day 0): 10000 or more cells/mL
The Number of Viable Cell (30° C., 30% w/w, Day 3): 10000 or more cells/mL
The Number of Viable Cell (30° C., 30% w/w, Day 7): 10000 or more cells/mL
The Number of Viable Cell (30° C., 30% w/w, Day 14): 7780 cells/mL
The Number of Viable Cell (30° C., 30% w/w, Day 28): 110 cells/mL
The Number of Viable Cell (30° C., 30% w/w, Day 56): 0 cells/mL
The Number of Viable Cell (30° C., 40% w/w, Day 0): 10000 or more cells/mL
The Number of Viable Cell (30° C., 40% w/w, Day 3): 10400 cells/mL
The Number of Viable Cell (30° C., 40% w/w, Day 7): 2820 cells/mL
The Number of Viable Cell (30° C., 40% w/w, Day 14): 420 cells/mL
The Number of Viable Cell (30° C., 40% w/w, Day 28): 0 cells/mL
The Number of Viable Cell (30° C., 40% w/w, Day 56): 0 cells/mL
The Number of Viable Cell (37° C., 30% w/w, Day 0): 10000 or more cells/mL
The Number of Viable Cell (37° C., 30% w/w, Day 3): 10000 or more cells/mL
The Number of Viable Cell (37° C., 30% w/w, Day 7): 8270 cells/mL
The Number of Viable Cell (37° C., 30% w/w, Day 14): 0 cells/mL
The Number of Viable Cell (37° C., 30% w/w, Day 28): 0 cells/mL
The Number of Viable Cell (37° C., 30% w/w, Day 56): 0 cells/mL
The Number of Viable Cell (37° C., 40% w/w, Day 0): 10000 or more cells/mL
The Number of Viable Cell (37° C., 40% w/w, Day 3): 11100 cells/mL
The Number of Viable Cell (37° C., 40% w/w, Day 7): 140 cells/mL
The Number of Viable Cell (37° C., 40% w/w, Day 14): 0 cells/mL
The Number of Viable Cell (37° C., 40% w/w, Day 28): 0 cells/mL
The Number of Viable Cell (37° C., 40% w/w, Day 56): 0 cells/mL
The Number of Viable Cell (45° C., 30% w/w, Day 0): 10000 or more cells/mL
The Number of Viable Cell (45° C., 30% w/w, Day 3): 450 cells/mL
The Number of Viable Cell (45° C., 30% w/w, Day 7): 0 cells/mL
The Number of Viable Cell (45° C., 30% w/w, Day 14): 0 cells/mL
The Number of Viable Cell (45° C., 30% w/w, Day 28): 0 cells/mL
The Number of Viable Cell (45° C., 30% w/w, Day 56): 0 cells/mL
The Number of Viable Cell (45° C., 40% w/w, Day 0): 10000 or more cells/mL
The Number of Viable Cell (45° C., 40% w/w, Day 3): 0 cells/mL
The Number of Viable Cell (45° C., 40% w/w, Day 7): 0 cells/mL
The Number of Viable Cell (45° C., 40% w/w, Day 14): 0 cells/mL
The Number of Viable Cell (45° C., 40% w/w, Day 28): 0 cells/mL
The Number of Viable Cell (45° C., 40% w/w, Day 56): 0 cells/mL
The Number of Viable Cell (45° C., 50% w/w, Day 0): 10000 or more cells/mL
The Number of Viable Cell (45° C., 50% w/w, Day 3): 0 cells/mL
The Number of Viable Cell (45° C., 50% w/w, Day 7): 0 cells/mL
The Number of Viable Cell (45° C., 50% w/w, Day 14): 0 cells/mL
The Number of Viable Cell (45° C., 50% w/w, Day 28): 0 cells/mL
The Number of Viable Cell (45° C., 50% w/w, Day 56): 0 cells/mL
The Number of Viable Cell (50° C., 30% w/w, Day 0): 10000 or more cells/mL
The Number of Viable Cell (50° C., 30% w/w, Day 3): 0 cells/mL
The Number of Viable Cell (50° C., 30% w/w, Day 7): 0 cells/mL
The Number of Viable Cell (50° C., 30% w/w, Day 14): 0 cells/mL
The Number of Viable Cell (50° C., 30% w/w, Day 28): 0 cells/mL
The Number of Viable Cell (50° C., 30% w/w, Day 56): 0 cells/mL
The Number of Viable Cell (50° C., 40% w/w, Day 0): 10000 or more cells/mL
The Number of Viable Cell (50° C., 40% w/w, Day 3): 0 cells/mL
The Number of Viable Cell (50° C., 40% w/w, Day 7): 0 cells/mL
The Number of Viable Cell (50° C., 40% w/w, Day 14): 0 cells/mL
The Number of Viable Cell (50° C., 40% w/w, Day 28): 0 cells/mL
The Number of Viable Cell (50° C., 40% w/w, Day 56): 0 cells/mL
The Number of Viable Cell (50° C., 50% w/w, Day 0): 10000 or more cells/mL
The Number of Viable Cell (50° C., 50% w/w, Day 3): 0 cells/mL
The Number of Viable Cell (50° C., 50% w/w, Day 7): 0 cells/mL
The Number of Viable Cell (50° C., 50% w/w, Day 14): 0 cells/mL
The Number of Viable Cell (50° C., 50% w/w, Day 28): 0 cells/mL
The Number of Viable Cell (50° C., 50% w/w, Day 56): 0 cells/mL
growth of the microbes (temperature of 50° C. or more): prevented from growing
time after which microbes died (temperature of 50° C. or more): 3 days
